In PMC8534029 (Cells, 2021):

Target: T1, human DOR (T7-tagged, HEK293 cells) (Homo sapiens, UniProt P41143)
T1 construct: gene OPRD1
Assay: CellKey impedance assay, agonist
Format: cell-based
Conditions: morphine up to 10^−5 M, no OT, partial agonist, EC50 n.d.

T1 sequence (P41143 whole entry, looked up): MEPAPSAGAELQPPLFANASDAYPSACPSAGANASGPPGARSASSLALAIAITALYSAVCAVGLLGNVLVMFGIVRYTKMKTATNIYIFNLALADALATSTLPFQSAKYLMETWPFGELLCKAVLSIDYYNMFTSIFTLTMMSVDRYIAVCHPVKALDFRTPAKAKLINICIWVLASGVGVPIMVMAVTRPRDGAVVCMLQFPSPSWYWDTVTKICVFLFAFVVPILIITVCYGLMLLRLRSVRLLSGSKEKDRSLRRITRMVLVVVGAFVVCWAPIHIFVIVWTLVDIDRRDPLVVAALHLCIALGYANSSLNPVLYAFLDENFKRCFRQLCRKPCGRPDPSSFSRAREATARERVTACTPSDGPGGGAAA

CN1CC[C@]23c4c5ccc(O)c4O[C@H]2[C@@H](O)C=C[C@H]3[C@H]1C5 [morphine]
maximum response (% of SNC80 Emax): 50.6 ± 7.01%
